Molecules are shown by their SMILES.

The first assay deals with T1, yeast HSP90 (Saccharomyces cerevisiae, UniProt P02829).
T1 construct: made in house; host or cells: E. coli
T1 sequence (P02829 whole entry, looked up): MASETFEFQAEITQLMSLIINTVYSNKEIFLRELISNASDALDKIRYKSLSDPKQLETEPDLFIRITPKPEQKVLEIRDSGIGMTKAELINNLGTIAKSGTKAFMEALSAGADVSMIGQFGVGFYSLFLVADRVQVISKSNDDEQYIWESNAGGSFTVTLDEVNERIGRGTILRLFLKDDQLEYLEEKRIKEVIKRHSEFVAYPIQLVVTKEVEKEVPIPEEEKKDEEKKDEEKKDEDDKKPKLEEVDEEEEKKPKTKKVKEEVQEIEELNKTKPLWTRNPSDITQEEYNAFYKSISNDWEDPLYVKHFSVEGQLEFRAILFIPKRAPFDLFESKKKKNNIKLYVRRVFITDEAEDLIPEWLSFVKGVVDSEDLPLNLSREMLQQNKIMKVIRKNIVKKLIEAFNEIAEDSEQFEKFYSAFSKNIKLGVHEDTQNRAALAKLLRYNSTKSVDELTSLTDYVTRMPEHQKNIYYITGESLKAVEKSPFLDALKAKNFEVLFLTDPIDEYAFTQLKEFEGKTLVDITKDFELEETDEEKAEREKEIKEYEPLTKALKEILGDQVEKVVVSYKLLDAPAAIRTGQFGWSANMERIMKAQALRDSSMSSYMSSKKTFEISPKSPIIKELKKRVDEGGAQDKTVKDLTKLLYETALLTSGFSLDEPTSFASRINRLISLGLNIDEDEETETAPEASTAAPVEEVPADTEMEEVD
The assay can be described thus: Malachite green HSP90 ATPase assay. In kind it is biochemical. Particulars: ATPase IC50, activity range, ATPase assay. The source says:
Two methods have been developed to measure the intrinsic ATPase activity of HSP90, using yeast HSP90 as a model system. The first method utilises a regenerating coupled enzyme assay. The second assay, based on the use of malachite green for the measurement of inorganic phosphate, was designed for high throughput screening (HTS) to identify novel HSP90 inhibitor drug candidates.
Colorimetric assays for the determination of phosphate, based on the formation of a phosphomolybdate complex, can be carried out in a few steps with inexpensive reagents and are well suited to the automation required for high throughput screening (see, e.g., Cogan et al., 1999). Enzymes that release inorganic phosphate are assayed using the reaction of the cationic dye, malachite green, with the a complex formed by a reaction of the inorganic phosphate with molybdate to generate a blue-green colour with an absorbance maximum at 610 nm (see, e.g., Baykov et al., 1988; Harder et al., 1994; Maehama et al., 2000). The method has been used in both high throughput (see, e.g., Rumsfeld et al., 2000) and ultra-high throughput screening formats (see, e.g., Layery et al., 2001) for a variety of non-HSP90 ATPases. However, this method is complicated by the non-enzymatic hydrolysis of ATP in the presence of acidic malachite green reagent, causing an increase in colour (see, e.g., Chan et al., 1986; Henkel et al., 1988). This process is mediated by molybdate and can be overcome by the addition of sodium citrate immediately after the reagent (see, e.g., Lanzetta et al., 1979; Schirmer et al., 1998; Baginski et al., 1975). This modification has been adapted to the 96-well microtitre plate assay previously described for other ATPases (see, e.g., Lanzetta et al., 1979) to produce the following protocol for HSP90 ATPase, which is suitable for high throughput screening.
Chemicals are of the highest purity commercially available and all aqueous solutions are made up in AR water. Because of the need to minimise contamination with inorganic phosphate, precautions should be taken with solutions and apparatus used in the assays. Glassware and pH meters are rinsed with double distilled or deionised water before use and, wherever possible, plastic ware should be used. Gloves are worn for all procedures. • (1) Immulon 96-well (Thermo Labsystems, Basingstoke, UK) or Cliniplate 384-well flat-bottomed polystyrene multiwell plates (Thermo Labsystems). • (2) Assay buffer of (a) 100 mM Tris-HCl, pH 7.4, (b) 20 mM KCl, (c) 6 mM MgCl2. Stored at 4° C. • (3) 0.0812% (w/v) malachite green (M 9636, Sigma Aldrich Ltd., Poole, UK). Stored at room temperature. • (4) 2.32% (w/v) polyvinyl alcohol USP (P 1097, Sigma Aldrich Ltd, Poole, UK) in boiling water (see Comment 1), allowed to cool, and stored at room temperature. • (5) 5.72% (w/v) ammonium molybdate in 6 M hydrochloric acid. Stored at room temperature. • (6) 34% (w/v) sodium citrate. Stored at room temperature. • (7) ATP, disodium salt, special quality (519979, Boehringer Mannheim, Lewes, UK). Stored at 4° C. • (8) E. coli expressed yeast HSP90 protein, purified >95% (see, e.g., Panaretou et al., 1998) and stored at −80° C. as 10 μl aliquots containing 0.5 mg of protein. Method
The following protocol was used: • (1) On the day of use, prepare the malachite green reagent from the stock solutions. Mix (a) 2 parts of malachite green, (b) 1 part of polyvinyl alcohol, (c) 1 part of ammonium molybdate, and (d) 2 parts of water. Initially, the reagent is a dark brown colour, but after standing at room temperature for about 2 h, this becomes a golden yellow colour and is ready for use. • (2) For the high throughput screening assays, the test compounds are dissolved at 200 μM in 2.0% DMSO and contained in daughter plates derived from the chemical libraries. Transfer 5 μl of each sample from the daughter plate to each well of the assay plate using automated equipment (see Comment 3). This represents a final concentration in the well of 40 μM.
The IC50 is the concentration needed to halve the response being measured. The molecule `COc1ccc(-c2c(-c3cc(Cl)c(O)cc3O)n[nH]c2C(=O)NC(C)C)cc1` [Example 170, 5-(5-Chloro-2,4-dihydroxy-phenyl)-4-(4-methoxy-phenyl)-2H-pyrazole-3-carboxylic acid isopropylamide] registered an IC50 of less than 50 µM.

Still in this assay, the particulars now being: activity class; read-out: Hsp90 IC50.
On to `Cc1[nH]nc(-c2ccc(C(=O)O)cc2)c1-c1ccc2c(c1)OCCO2` [Example 115], for which the IC50 was greater than 10 µM.

Regarding `CCc1cc(-c2n[nH]c(C(=O)O)c2-c2ncc(C)s2)c(O)cc1O` [Example 102], the concentration for half-maximal inhibition (IC50) lay in the range of 10 to 100 µM.

Consider `CCc1cc(-c2n[nH]cc2-c2ccc3c(c2)OCCO3)c(O)cc1O` [Example 83], for which the IC50 was less than 10 µM.

In the case of `O=C(NCc1ccc(-c2c[nH]nc2-c2cc(Cl)c(O)cc2O)cc1)c1ccc(-c2c3ccc(=O)cc-3oc3cc(O)ccc23)c(C(=O)O)c1` [Example 106, N-{4-[3-(5-Chloro-2,4-dihydroxy-phenyl)-1H-pyrazol-4-yl]-benzyl}-6-(6-hydroxy-3-oxo-3H-xanthen-9-yl)-isophthalamic acid], the IC50 is less than 10 µM.

Turning to `COc1ccc(-c2c(C)n[nH]c2-c2cc(C)nc(N)n2)cc1` [Example 152, 4-[4-(4-Methoxy-phenyl)-5-methyl-2H-pyrazol-3-yl]-6-methyl-pyrimidin-2-ylamine], the IC50 was greater than 10 µM.

Regarding `Cc1[nH]nc(-c2cc(Cl)c(O)cc2O)c1-c1ccccc1Br` [Example 69], the IC50 was in the range of 10 to 100 µM.

For `Cc1ccc(O)c(-c2n[nH]c(C)c2-c2ccc3c(c2)OCCO3)c1` [Example 110], the IC50 is greater than 10 µM.

Consider `Cc1[nH]nc(-c2ccc3c(c2O)OCO3)c1-c1ccc2c(c1)OCCO2` [Example 121], for which the IC50 is greater than 10 µM.

As for `COc1ccc(-c2c(-c3ccc(O)c(C)c3O)n[nH]c2C)cc1` [Example 132], the IC50 is greater than 10 µM.

As to `CCc1cc(-c2n[nH]cc2-c2ccccc2)c(O)cc1O` [Example 54], the IC50 is less than 10 µM.

In the case of `CC(=O)Nc1cccc(-c2n[nH]c(C)c2-c2ccc3c(c2)OCCO3)c1` [Example 113], the IC50 was greater than 10 µM.

`CCCc1cc(-c2n[nH]cc2-c2ccc3c(c2)OCO3)c(O)cc1O` [Example 140]: the IC50 is greater than 10 µM.

The same assay, now with this note: activity range, ATPase assay; read-out: ATPase IC50.
Take `COc1ccc(-c2c(C)n[nH]c2-c2cc(C(=O)NN)c(O)cc2O)cc1` [Example 178]: the IC50 is greater than 50 µM.

`Cc1[nH]nc(-c2ccc(C(=O)Nc3cccnc3)cc2)c1-c1ccc2c(c1)OCCO2` [Example 160]: the 50% inhibitory concentration (IC50) was greater than 50 µM.

For the molecule `Cn1cc(-c2ccc(Br)cc2)c(-c2cc(Cl)c(O)cc2O)n1` [Example 161, 4-[4-(4-Bromo-phenyl)-1-methyl-1H-pyrazol-3-yl]-6-chloro-benzene-1,3-diol], the 50% inhibitory concentration (IC50) was greater than 50 µM.

The same assay, now with this note: malachite green assay, 1 mM ATP; ±SD if n=3–5; read-out: HSP90 ATPase inhibition IC50.
Consider `CCCc1cc(-c2n[nH]c(C)c2-c2ccc3c(c2)OCCO3)c(O)cc1O` [CCT018156], for which the IC50 was 52.8 ± 12 µM.

Values taken from patent US7247734B2 (Vernalis (Cambridge) Limited, priority 2001, dated 2007).
